Assay results from PubChem BioAssay AID816 (SRMLSC, 2007).
Activity calls are given as the source filed them. How the calls were made is not given here.

Tested on: S. cerevisiae GAL1 promoter reporter activation counterscreen
Assay: yeast Gal1p promoter activation – S. cerevisiae, artefact control for yeast lifespan extension project (AID 816);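 further: yeast growth read after 24 h of incubation with compounds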

SMILES	EC50
CCOC(=O)c1c(NC(=O)C2C3C=CC(C3)C2C(=O)O)sc2c1CCC(CC)C2 (centres undefined)	> 40 µM (inactive)
CCc1cc2c(=O)c(Oc3ccccc3)c(C)oc2cc1O	> 40 µM (inactive)
CCOC(=O)C1=C(N)OC2=C(C(=O)CCC2)C1c1sccc1C (centres undefined)	> 40 µM (inactive)
COc1ccc(C(=O)C(CN2CCOCC2)c2ccccc2)cc1 (centres undefined)	> 40 µM (inactive)
CC(C)(C)OC(=O)[C@H]1[C@H](c2ccc([N+](=O)[O-])cc2)C2(C(=O)c3ccccc3C2=O)C2c3ccccc3C=NN21 (some centres undefined)	> 40 µM (inactive)
O=[N+]([O-])c1cc2oc3c(c2c(C=NCc2ccncc2)c1O)CCCC3	> 40 µM (inactive)
Cc1cc(C)c(NC(=O)/C(=C/c2ccccc2)c2ccccc2)c(C)c1	> 40 µM (inactive)
O=C(Nc1ccc(S(=O)(=O)N2CCc3ccccc3C2)cc1)c1ccccc1	> 40 µM (inactive)
O=c1c2c3c(sc2ncn1/N=C/c1ccc([N+](=O)[O-])o1)CCCC3	> 40 µM (inactive)
CC(C)Cc1nn2c(=O)cc(O)nc2s1	> 40 µM (inactive)
CC1(C)CC(=O)C(C(=O)Cc2ccccc2[N+](=O)[O-])C(=O)C1	> 40 µM (inactive)
O=Cc1ccccc1OS(=O)(=O)c1ccccc1	> 40 µM (inactive)
C=CCn1c(-c2ccc(OC)cc2)csc1=Nc1c(C)n(C)n(-c2ccccc2)c1=O	> 40 µM (inactive)
Cc1ccc(NC(=O)C2C(=O)N(C)c3ccccc32)cc1 (centres undefined)	> 40 µM (inactive)
COc1cnc(-c2ccccn2)nc1Sc1cccc(Cl)c1	> 40 µM (inactive)
CCOc1cc(Br)c(Br)c(C=Nc2ccc(NC(C)=O)cc2)c1O	> 40 µM (inactive)
CS(=O)(=O)Oc1ccc(Br)cc1/C=C1/N=C(c2ccco2)OC1=O	> 40 µM (inactive)
CCOC(=O)c1[nH]nc(C(=O)c2ccc(Br)cc2)c1O	> 40 µM (inactive)
COC(=O)CCS(=O)(=O)c1nc(-c2ccccc2)cc(C(F)(F)F)n1	> 40 µM (inactive)
CCCC(=Nc1ccccc1OC)C1=C(O)CC(c2ccccc2)CC1=O (centres undefined)	> 40 µM (inactive)
COc1ccc(/C=N/NC(=O)c2csc(-n3nc(C)cc3C(F)(F)F)n2)cc1	> 40 µM (inactive)
CC(C)CN=C(NS(=O)(=O)c1ccccc1)C(Cl)(Cl)Cl	> 40 µM (inactive)
O=c1c2[nH]c3ccccc3c2ncn1Cc1ccco1	> 40 µM (inactive)

SMILES	EC50
CCNCCNC(=O)c1c(O)c2cccc3c2n(c1=O)CCC3	> 40 µM (inactive)
CCc1nc(SCC(=O)c2ccc3c(c2)OCCO3)c2ccccc2n1	> 40 µM (inactive)
Cc1ccccc1NC(=O)c1ccccc1	> 40 µM (inactive)
CCc1nnc(N2C(=O)c3ccc(Oc4ccc([N+](=O)[O-])cc4)cc3C2=O)s1	> 40 µM (inactive)
Nc1cccc2c1C(=O)N(C(=O)c1ccc(Cl)c(S(=O)(=O)N3CCCCCC3)c1)C2=O	> 40 µM (inactive)
CCOC(=O)CC1=NN(c2ccccc2)C(=O)/C1=C\c1ccc(OC)cc1OC	> 40 µM (inactive)
Cc1cc(C)n(-c2ccc(OCC(=O)O)nn2)n1	> 40 µM (inactive)
CCCCC(=Nc1ccc(N)cc1)C1=C(O)C(C(=O)OC)C(C)(C)CC1=O (centres undefined)	> 40 µM (inactive)
CCSc1ccccc1C(=O)n1nnc2ccccc21	> 40 µM (inactive)
O=C1CC(c2ccccc2)CC(O)=C1C=NCCN1CCN(C(=O)Cc2ccccc2)CC1 (centres undefined)	> 40 µM (inactive)
COCCN(CCOC)S(=O)(=O)c1ccc(C(=O)Nc2sc3c(c2C(N)=O)CCCCC3)cc1	> 40 µM (inactive)
CCn1c(/N=C/c2ccccc2NS(=O)(=O)c2ccc(C)cc2)nc2ccccc21	> 40 µM (inactive)
O=C(NC(=S)NNC(=O)c1ccccc1O)c1ccco1	> 40 µM (inactive)
O=c1cc(-c2ccccc2Cl)oc2ccc([N+](=O)[O-])c(O)c12	> 40 µM (inactive)
CCOc1ccc(C2=NNC(c3cccs3)=Nc3ccc(OCC)cc32)cc1	> 40 µM (inactive)
CC(=O)N1CCN(CCN=CC2=C(O)CC(c3cccs3)CC2=O)CC1 (centres undefined)	> 40 µM (inactive)
C=CCn1c(O)c(C(CC)=NCCN2CCOCC2)c(=O)[nH]c1=O	> 40 µM (inactive)
CCCNC(=O)CCC(NS(=O)(=O)c1ccc(C)cc1)C(=O)NCCC (centres undefined)	> 40 µM (inactive)
C[C@]12CC[C@@H]3c4ccc(O)cc4CC[C@H]3[C@@H]1CC[C@@H]2OC(=O)CCC(=O)O	> 40 µM (inactive)
Cn1c(SCC(=O)N2CCCc3ccccc32)nnc1-c1c[nH]c2ccccc12	> 40 µM (inactive)
O=[N+]([O-])c1c(C(Cl)Cl)nn(-c2ccccc2)c1N1CCCC1	> 40 µM (inactive)
COc1ccc(/C=C/C(=O)C2C(=O)C=C(C)OC2=O)cc1O (centres undefined)	> 40 µM (inactive)
COc1ccc(N(C(=O)C(C)C)S(=O)(=O)c2ccc(Cl)cc2)cc1	> 40 µM (inactive)

SMILES	EC50
Cc1ccc(N2NC(=O)/C(=C\c3cc4c(cc3[N+](=O)[O-])OCO4)C2=O)cc1C	> 40 µM (inactive)
Cc1ccc(C(=O)C2C(=O)c3ccccc3C2=O)cc1	> 40 µM (inactive)
O=C(NCc1ccco1)c1c(O)c2cccc3c2n(c1=O)CCC3	> 40 µM (inactive)
CN1OC(c2ccccc2)=C(CO)C1c1ccccc1 (centres undefined)	> 40 µM (inactive)
Cc1ccc(C(=O)OC2=CC(=O)CC(C)(C)C2)cc1	> 40 µM (inactive)
Cc1cc(C)c(S(=O)(=O)c2ccccc2)c(OC(=O)c2cc(F)c(F)cc2Cl)n1	> 40 µM (inactive)
N#Cc1ccc(-c2ccc(OCC(=O)NCCc3ccccc3)cc2)cc1	> 40 µM (inactive)
Oc1ccc2ccccc2c1C=Nc1ccccc1-c1nc2ccccc2[nH]1	> 40 µM (inactive)
CCOc1ccc(N=Cc2c(O)c3ccccc3oc2=O)cc1	> 40 µM (inactive)
CC(=O)Oc1ccc(N(C(C)=O)S(=O)(=O)c2ccc(C)c([N+](=O)[O-])c2)cc1	> 40 µM (inactive)
O=C1/C(=C/c2cccnc2)CCC/C1=C\c1cccnc1	> 40 µM (inactive)
CCSc1nnc(NC(=O)CSc2nc(C)cc(C)n2)s1	> 40 µM (inactive)
COc1ccc(CCN2C(=O)C(O)=C(C(=O)c3ccco3)C2c2cccs2)cc1OC (centres undefined)	> 40 µM (inactive)
Cc1nonc1NC(=O)CSc1nc(C2CCCCC2)nc2ccccc12	> 40 µM (inactive)
CCOc1ccc(/C=C/C(=O)c2c(O)c3ccccc3oc2=O)cc1	> 40 µM (inactive)
CC1=CN2C(=N)/C(=C/c3ccc([N+](=O)[O-])o3)C(=O)N=C2S1	> 40 µM (inactive)
COc1ccc(/C(O)=C/C(=O)C(=O)Nc2c(C)n(C)n(-c3ccccc3)c2=O)cc1	> 40 µM (inactive)
COC(=O)C1=C(C(=O)OC)C(c2ccccc2O)c2sc(=O)[nH]c2S1 (centres undefined)	> 40 µM (inactive)
Cc1ccnc(N=Cc2c(O)ccc3oc4c(c23)CCCC4)c1	> 40 µM (inactive)
O=C1ON=C(c2ccccc2)/C1=C/c1ccc(-c2ccccc2[N+](=O)[O-])o1	> 40 µM (inactive)
COc1ccc(-c2cc(C(F)(F)F)nc(S(C)(=O)=O)n2)cc1	> 40 µM (inactive)
CCCCC(=O)Nc1ccc(C(=O)NNC(=S)NC(=O)c2cccs2)cc1	> 40 µM (inactive)
COc1ccccc1C(=O)Oc1ccc2c(c1)O/C(=C\c1ccncc1)C2=O	> 40 µM (inactive)
